Legend:
[1] = system: HBV; assay: HBV entry/infection of DMSO-differentiated HuS-E/2 cells (HBsAg/HBeAg ELISA, HBV mRNA RT-PCR); type: cell-based, Hepatitis B virus; conditions: for levels of HBV mRNA: HuS-E/2 cells, drug present during infection; for inhibiting the entry of HBV into HuS-E/2 cells: by HBsAg, HBeAg and HBV mRNA expression levels
Description: (§1) DMSO-differentiated HuS-E/2 cells were exposed to HBV at a MOI of 10 for 20 h in the presence of the indicated concentration of Antrodia camphorata fruit body extracts, then the HBV and drugs were removed and the cells incubated for 2 days, when HBsAg secreted into the culture medium was measured by ELISA and expressed as a percentage of the value for the non-drug-treated controls. The results are the mean±SD for three independent experiments. *, P<0.05; **, P<0.01; ***, P<0.001.
as §1, with “HBeAg” for “HBsAg”
DMSO-differentiated HuS-E/2 cells were exposed to HBV at a MOI of 10 for 20 h in the presence of the indicated concentration of Antrodia camphorata fruit body extracts, then the HBV and drugs were removed and the cells incubated for 2 days. RNA was then extracted from cells and subjected to RT-PCR to measure HBV mRNA levels. The results expressed were as a percentage of the value for the non-drug-treated cells. Control PCRs were performed for endogenous GAPDH mRNA as the loading control. The results are the mean±SD for three independent experiments. *, P<0.05; **, P<0.01; ***, P<0.001.
HuS-E/2 cells that retains primary hepatocyte characteristics even after prolonged culture are utilized for HBV infection. For HBV infection, HuS-E/2 cells were differentiated with 2% DMSO for 7 days, and virus particles were collected to infect and replicate in HuS-E/2 cells as described in our previous study. These cells are useful to assay infectivity of HBV strains, and screening of anti-HBV agents.
Total DNA is extracted with a Genomic DNA isolation kit (Nexttec Biotechnologie, Germany). Total RNA is isolated from cultured cells using TRIzol® reagent (Invitrogen). […] The results are analyzed with the iCycler iQ real-time PCR detection system (Bio-Rad). […]
To evaluate the effects of Antrodia camphorata fruit body extracts on HBV infectivity and replication, HuS-E/2 cells were infected with ayw subtype HBV derived from HepG2.2.15 cells. The different Antrodia camphorata fruit body extracts were added to the medium during infection with HBV for […], then the infected cells were washed and incubated in fresh medium for 48 hours, when HBsAg and HBeAg in culture medium were detected by ELISA and HBV mRNA was detected by real-time PCR as an index of efficiency of HBV infection.

[2] = system: Oral epithelial cells (OC3); assay: MTT cell viability of mock- or HSV-1-infected oral epithelial cells (OC3); type: cell-based; conditions: OC3 cells, MTT, 19 hours post infection
Description: (§2) FIG. 4 provides Experimental conditions for evaluation of the effects of Antrodia camphorata fruit body extracts on oral epithelial cells during HSV-1 infection. Three experimental conditions, including no-treatment, pre-treatment and post-treatment were performed. Oral epithelial cells (OC3) were pre-treated with media only or media containing each Antrodia camphorata extracts for 2 hours, followed by HSV-1 inoculation. Cells were infected with HSV-1 viruses at multiplicity of infection (MOI) of 5 or mock infected for 1 hour at 37° C. for viral entry to occur. Antrodia camphorata extracts were not added during viral inoculation for 1 hour to avoid of its direct effects on virions. Mock- or HSV-1-infected cells were further incubated in the absence or presence of the drug for 19 hours.
The oral epithelial cell line (OC3) was used to determine the possible effects of Antrodia camphorata extracts on oral epithelial cells during HSV-1 infection. Cell monolayers were treated as illustrated in FIG. 4 (please also see details in the Materials and Methods section). Three experimental conditions, including no-treatment, pre-treatment and post-treatment were performed. Whether these Antrodia camphorata extracts have effects before or after viral infection were examined. The effects of Antrodia camphorata extracts on viral propagation (viral yields) in infected oral epithelial cells were examined. At 19-20 h post infection, viral yields in the supernatants were determined using the plaque assay. Viability of treated cells was also determined using the MTT assay for the mitochondrial dehydrogenase activity. Moreover, purified HSV-1 virions were directly treated with Antrodia camphorata extracts to examine whether Antrodia camphorata extracts exert anti-HSV-1 activity directly on virus particles before viral entry. […]
The mitochondrial dehydrogenase activity of treated cells was evaluated using the FBS-free medium containing 1 mg/ml of 3-[4,5-dimethylthiazol-2-yl]-2,5 diphenyltetrazolium bromide (MTT). […]

[3] = system: HSV-1 virus (KOS strain); assay: HSV-1 viral yields in supernatants of OC3 cells, plaque assay; type: cell-based, Herpes simplex virus type 1; conditions: for viral yields in the supernatants, post-treatment: OC3 cells post-treated after HSV-1 infection (MOI 5), 19 hours; for viral yields in the supernatants, pre-treatment: OC3 cells pre-treated 2 hours before HSV-1 infection (MOI 5); for viral yield reduced to: media control = 100%
Description: as §2
(§3) The oral epithelial cell line (OC3) was used to determine the possible effects of Antrodia camphorata extracts on oral epithelial cells during HSV-1 infection. Cell monolayers were treated as illustrated in FIG. 4 (please also see details in the Materials and Methods section). Three experimental conditions, including no-treatment, pre-treatment and post-treatment were performed. Whether these Antrodia camphorata extracts have effects before or after viral infection were examined. The effects of Antrodia camphorata extracts on viral propagation (viral yields) in infected oral epithelial cells were examined. At 19-20 h post infection, viral yields in the supernatants were determined using the plaque assay. Viability of treated cells was also determined using the MTT assay for the mitochondrial dehydrogenase activity. Moreover, purified HSV-1 virions were directly treated with Antrodia camphorata extracts to examine whether Antrodia camphorata extracts exert anti-HSV-1 activity directly on virus particles before viral entry.
HSV-1 virus (KOS strain) from the extra-cellular fluid of infected Vero cells was purified using sucrose-gradient. Purified viruses were stored frozen in small aliquots. Purified viruses were titered using the plaque assay.
Oral epithelial cells (OC3 cells) were infected with HSV-1 at multiplicity of infection (MOI) of 5 or mock infected for 1 h at 37° C. for viral entry to occur. Unbound viruses were removed. Infected cells were then overlaid with appropriate media and incubated at 37° C. The Antrodia camphorata fruit body extracts used were A2 (Antrodia camphorata extracts), A3 (dehydrosulphurenic acid), A4 (antcin K), A5 (versisponic acid), and A6 (dehydroeburicoic acid). For the effects of Antrodia camphorata fruit body extracts, oral cells were treated in three different experimental conditions (FIG. 1): (1) no treatment, (2) pre-treatment with each Antrodia camphorata fruit body extracts before infection and (3) post-treatment with each Antrodia camphorata fruit body extracts after infection. Purified HSV-1 virions were also incubated directly with media only or media containing Antrodia camphorata fruit body extracts. The viral infectivity of treated virions was then examined using the plaque assay.
Viral titers in the supernatants after infection were determined using the plaque assay. Cells were grown to confluence and infected with tenfold serial dilution of the samples. Cells were then overlaid with medium containing 3% carboxymethylcellulose to prevent the formation of secondary plaques. Cells were incubated until well-defined clear plaques were formed. Cells were fixed with 3.7% formaldehyde and stained with crystal violet. Plaques were observed and counted under an inverted microscope. The viral yield of the media-pretreated HSV-1 infected control was considered to be 100%.

[4] = system: HSV-1 virions; assay: Direct effect on infectivity of purified HSV-1 virions, plaque assay; type: cell-based, Herpes simplex virus type 1; conditions: purified virions incubated directly with drug 1 hour at 37° C., dose-dependent
Description: Purified HSV-1 was incubated directly with media containing various concentrations of each Antrodia camphorata extracts for 1 hour at 37° C. The viral titers were then examined in oral epithelial cells (OC3) using the plaque assay. The results shown are the mean±SEM from at least three independent experiments. Statistical differences are shown by different lowercase letters (analysis of variance, Tukey, α=0.05).
as §3
Oral epithelial cells (OC3 cells) were infected with HSV-1 at multiplicity of infection (MOI) of 5 or mock infected for 1 h at 37° C. for viral entry to occur. Unbound viruses were removed. Infected cells were then overlaid with appropriate media and incubated at 37° C. The Antrodia camphorata fruit body extracts used were A2 (Antrodia camphorata extracts), A3 (dehydrosulphurenic acid), A4 (antcin K), A5 (versisponic acid), and A6 (dehydroeburicoic acid). […]
Viral titers in the supernatants after infection were determined using the plaque assay. […] Plaques were observed and counted under an inverted microscope. […]

[5] = system: HuS-E/2 immortalized human primary hepatocytes cells; assay: MTT cell viability, HuS-E/2 cells; conditions: 48 h, 20 μg/ml
[6] = system: HepG2.2.15 cells; assay: MTT cell viability, HepG2.2.15 cells; conditions: 48 h, 20 μg/ml
[7] = OC3 cells post-treated with 2.5 μg/ml after HSV-1 infection
[8] = OC3 cells pre-treated with 10 μg/ml for 2 hours before HSV-1 infection

SMILES: C=C(CC[C@@H](C(=O)O)[C@H]1C[C@H](OC(C)=O)[C@@]2(C)C3=C(CC[C@]12C)[C@@]1(C)CC[C@H](O)C(C)(C)[C@@H]1CC3)C(C)C [A5, versisponic acid]
- levels of HBV mRNA [1]: decrease
- inhibiting the entry of HBV into HuS-E/2 cells [1]: much more effective
- viability of mock-infected cells or HSV-1 infected cells [2]: not affected evidently
- viral yields in the supernatants, post-treatment [3]: significantly reduced
- viral yields in the supernatants, pre-treatment [3]: significantly reduced
- viral yield reduced to ([3]; OC3 cells pre-treated with 25 μg/ml for 2 hours before HSV-1 infection): 48%
- viral yield reduced to ([3]; infected OC3 cells post-treated with 12.5 μg/ml): 57%
- viral infectivity of treated HSV-1 virions [4]: statistically significantly inhibited
- toxic effect (MTT cell viability) [5]: no toxic effect
- toxic effect (MTT cell viability) [6]: little or no toxic effect

SMILES: C=C(CC[C@@H](C(=O)O)[C@H]1CC[C@@]2(C)C3=CC[C@H]4C(C)(C)[C@@H](O)CC[C@]4(C)C3=CC[C@]12C)C(C)C [A6, dehydroeburicoic acid]
- levels of HBV mRNA [1]: decrease
- inhibiting the entry of HBV into HuS-E/2 cells [1]: much more effective
- viral yields in the supernatants, post-treatment [3]: significantly reduced
- viral yield reduced to [3, 7]: 63%
- viral yields in the supernatants, pre-treatment [3]: significantly reduced
- viral yield reduced to [3, 8]: 37%
- viral infectivity of treated HSV-1 virions [4]: statistically significantly inhibited
- toxic effect (MTT cell viability) [5]: no toxic effect

SMILES: C=C(CC[C@H](C(=O)O)[C@H]1C[C@H](O)[C@@]2(C)C3=CC[C@H]4C(C)(C)[C@@H](O)CC[C@]4(C)C3=CC[C@]12C)C(C)C [A3, dehydrosulphurenic acid]
- viability of mock-infected cells or HSV-1 infected cells [2]: not affected evidently
- viral yields in the supernatants, post-treatment [3]: did not reach statistical difference
- viral yield reduced to [3, 7]: 65%
- viral yields in the supernatants, pre-treatment [3]: did not reach statistical difference
- viral yield reduced to [3, 8]: 57%

— US11253527B2, “Method and composition for inhibiting virus infection” (priority 2019, dated 2022)
